Measured values: PubChem BioAssay (NCI)
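Tested at 5 concentrations; 48 h exposure; 96-well plates; endpoints linearly interpolated, else capped at highest concentration. TGI denotes the concentration required for complete inhibition of growth.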

Experiments:
Experiment in all cases: DTP human tumour cell line panel, 48 h
[1] = tested on: SF-295 CNS
[2] = tested on: SN12C renal
[3] = tested on: NCI/ADR-RES ovarian
[4] = tested on: TK-10 renal
[5] = tested on: SK-MEL-2 melanoma
[6] = tested on: EKVX NSCLC
[7] = tested on: IGROV1 ovarian
[8] = tested on: SF-268 CNS
[9] = tested on: ACHN renal
[10] = tested on: COLO 205 colon
[11] = tested on: KM12 colon
[12] = tested on: HS 578T breast
[13] = tested on: DU-145 prostate
[14] = tested on: U251 CNS
[15] = tested on: SW-620 colon
[16] = tested on: A549 NSCLC
[17] = tested on: OVCAR-8 ovarian
[18] = tested on: SF-539 CNS
[19] = tested on: UACC-257 melanoma
[20] = tested on: LOX IMVI melanoma
[21] = tested on: SR leukemia
[22] = tested on: NCI-H23 lung
[23] = tested on: OVCAR-4 ovarian
[24] = tested on: T-47D breast
[25] = tested on: K-562 leukemia
[26] = tested on: HOP-62 NSCLC
[27] = tested on: MOLT-4 leukemia
[28] = tested on: RPMI-8226 leukemia
[29] = tested on: MDA-N
[30] = tested on: BT-549 breast
[31] = tested on: 786-0 renal
[32] = tested on: PC-3 prostate
[33] = tested on: NCI-H522 lung
[34] = tested on: OVCAR-5 ovarian
[35] = tested on: HOP-92 NSCLC
[36] = tested on: SK-OV-3 ovarian
[37] = tested on: UO-31 renal
[38] = tested on: M14 melanoma
[39] = tested on: OVCAR-3 ovarian
[40] = tested on: HL-60(TB) leukemia
[41] = tested on: RXF 393 renal
[42] = tested on: HCC-2998 colon
[43] = tested on: MCF7 breast
[44] = tested on: SK-MEL-5 melanoma
[45] = tested on: MDA-MB-435
[46] = tested on: HCT-116 colon
[47] = tested on: HT29 colon
[48] = tested on: SNB-19 CNS
[49] = tested on: NCI-H226 lung
[50] = tested on: A498 renal
[51] = tested on: NCI-H460 lung
[52] = tested on: CAKI-1 renal
[53] = tested on: CCRF-CEM leukemia
[54] = tested on: HCT-15 colon
[55] = tested on: MDA-MB-231 breast
[56] = tested on: UACC-62 melanoma
[57] = tested on: SNB-75 CNS
[58] = tested on: MALME-3M melanoma
[59] = tested on: SK-MEL-28 melanoma

SMILES: CC1=C(C(=O)NNC(=O)C[N+](C)(C)C)CC(C(=O)NNC(=O)C[N+](C)(C)C)=C(C)N1
- TGI [1]: > 100 µM
- TGI [2]: > 100 µM
- TGI [3]: > 100 µM
- TGI [4]: > 100 µM
- TGI [5]: > 100 µM
- TGI [6]: > 100 µM
- TGI [7]: > 100 µM
- TGI [8]: > 100 µM
- TGI [9]: > 100 µM
- TGI [10]: > 100 µM
- TGI [11]: > 100 µM
- TGI [12]: > 100 µM
- TGI [13]: > 100 µM
- TGI [14]: > 100 µM
- TGI [15]: > 100 µM
- TGI [16]: > 100 µM
- TGI [17]: > 100 µM
- TGI [18]: > 100 µM
- TGI [19]: > 100 µM
- TGI [20]: > 100 µM
- TGI [21]: > 100 µM
- TGI [22]: > 100 µM
- TGI [23]: > 100 µM
- TGI [24]: > 100 µM
- TGI [25]: > 100 µM
- TGI [26]: > 100 µM
- TGI [27]: > 100 µM
- TGI [28]: > 100 µM
- TGI [29]: > 100 µM
- TGI [30]: > 100 µM
- TGI [31]: > 100 µM
- TGI [32]: > 100 µM
- TGI [33]: > 100 µM
- TGI [34]: > 100 µM
- TGI [35]: > 100 µM
- TGI [36]: > 100 µM
- TGI [37]: > 100 µM
- TGI [38]: > 100 µM
- TGI [39]: > 100 µM
- TGI [40]: > 100 µM
- TGI [41]: > 100 µM
- TGI [42]: > 100 µM
- TGI [43]: > 100 µM
- TGI [44]: > 100 µM
- TGI [45]: > 100 µM
- TGI [46]: > 100 µM
- TGI [47]: > 100 µM
- TGI [48]: > 100 µM
- TGI [49]: > 100 µM
- TGI [50]: > 100 µM
- TGI [51]: > 100 µM
- TGI [52]: > 100 µM
- TGI [53]: 94 µM
- TGI [54]: > 100 µM
- TGI [55]: > 100 µM
- TGI [56]: > 100 µM

SMILES: Cc1nc2ccccc2n1Cc1nnc(-c2ccccc2)o1
- TGI [1]: > 100 µM
- TGI [2]: > 100 µM
- TGI [3]: > 100 µM
- TGI [4]: > 100 µM
- TGI [5]: > 100 µM
- TGI [6]: > 100 µM
- TGI [7]: > 100 µM
- TGI [8]: > 100 µM
- TGI [9]: > 100 µM
- TGI [10]: > 100 µM
- TGI [11]: > 100 µM
- TGI [12]: > 100 µM
- TGI [13]: > 100 µM
- TGI [14]: > 100 µM
- TGI [15]: > 100 µM
- TGI [16]: > 100 µM
- TGI [17]: > 100 µM
- TGI [18]: > 100 µM
- TGI [19]: > 100 µM
- TGI [20]: > 100 µM
- TGI [21]: > 100 µM
- TGI [22]: > 100 µM
- TGI [24]: > 100 µM
- TGI [25]: > 100 µM
- TGI [26]: > 100 µM
- TGI [27]: > 100 µM
- TGI [28]: > 100 µM
- TGI [29]: > 100 µM
- TGI [30]: > 100 µM
- TGI [31]: > 100 µM
- TGI [32]: > 100 µM
- TGI [33]: > 100 µM
- TGI [34]: > 100 µM
- TGI [35]: > 100 µM
- TGI [36]: > 100 µM
- TGI [37]: > 100 µM
- TGI [38]: > 100 µM
- TGI [39]: > 100 µM
- TGI [40]: > 100 µM
- TGI [57]: > 100 µM
- TGI [41]: > 100 µM
- TGI [42]: > 100 µM
- TGI [43]: > 100 µM
- TGI [44]: > 100 µM
- TGI [45]: 0.692 µM
- TGI [46]: > 100 µM
- TGI [47]: > 100 µM
- TGI [58]: > 100 µM
- TGI [48]: > 100 µM
- TGI [50]: > 100 µM
- TGI [51]: > 100 µM
- TGI [59]: > 100 µM
- TGI [53]: > 100 µM
- TGI [54]: > 100 µM
- TGI [55]: > 100 µM
- TGI [56]: > 100 µM
